From patent publication US20100048462A1, “TRUNCATED PTH PEPTIDES WITH A CYCLIC CONFORMATION” (Zealand Pharma A/S, priority 2006, published 2010)
Bridge positions count the residues as written; N and C are the ends. Square brackets hold non-standard residues; d marks the D form. Peptide text beside a SMILES is read from it. I, II: the chains in the order shown. hArg = N=C(N)NCCCC[C@H](N)C(=O)O; Ac5c = NC1(C(=O)O)CCCC1; Aib = CC(C)(N)C(=O)O

Target: T1, PTH receptor 1 (Mus musculus, UniProt P41593)
T1 construct: host or cells: MC3T3-E1 subclone 4
T1 sequence (P41593 27-591): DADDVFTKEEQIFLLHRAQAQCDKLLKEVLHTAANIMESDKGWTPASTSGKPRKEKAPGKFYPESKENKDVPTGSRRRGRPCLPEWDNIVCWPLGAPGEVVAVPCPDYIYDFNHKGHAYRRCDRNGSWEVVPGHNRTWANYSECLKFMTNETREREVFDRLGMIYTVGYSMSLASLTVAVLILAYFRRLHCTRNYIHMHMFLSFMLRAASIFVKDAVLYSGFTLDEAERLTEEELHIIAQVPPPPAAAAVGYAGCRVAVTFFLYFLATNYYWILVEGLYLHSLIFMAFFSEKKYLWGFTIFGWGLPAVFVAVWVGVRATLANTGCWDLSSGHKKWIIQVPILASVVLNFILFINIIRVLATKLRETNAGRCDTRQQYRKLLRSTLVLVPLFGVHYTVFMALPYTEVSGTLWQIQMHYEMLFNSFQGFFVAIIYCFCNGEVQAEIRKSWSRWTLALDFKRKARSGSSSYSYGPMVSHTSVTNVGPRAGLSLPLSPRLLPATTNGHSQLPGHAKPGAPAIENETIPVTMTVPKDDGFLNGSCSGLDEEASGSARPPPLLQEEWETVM
Experiment: MC3T3-E1 cAMP efficacy assay
Assay type: cell-based, murine
Details: MC3T3-E1 cells
Description: MC3T3-E1 cells were seeded at 10,000 cells/well in 96-microtiter plates and grown overnight before the efficacy assays. On the day of analysis the growth medium was carefully removed by suction. Cells were washed once with 200 μl TB/0.1% […]. The buffer was replaced with 100 μl reaction mixture (±test peptide, +100 μM IBMX) and incubated at 37° C. for 13 min. The reaction was stopped by addition of 25 μl of ice-cold 0.5 M HCl. Cells were in the following incubated on ice for 60 min. 75 μl acetate-buffer were added to each well in a 96-well cAMP FlashPlate. […] FlashPlates were incubated overnight at 4° C., emptied by suction and counted in a TopCounter.
Determinations were performed in triplicates at all doses. Standards were included as single determinations, duplicates or triplicates in each experiment, preferentially on each plate.
Efficacy was evaluated in the concentration range from […].
Concentration-dependent cAMP responses were imported into GraphPad Prism vers. 4, transformed and plotted. Curves were fitted with a function for sigmoidal dose response curve non-linear fit Y=Bottom+(Top-Bottom)/(1+10̂((LogEC50-X))) where X is the logarithm of concentration and Y is the response. Y starts at Bottom and goes to Top with a sigmoid shape. pEC50 and the maximally inducible concentration of cAMP were evaluated. Overall statistical differences were analyzed using one-way ANOVA. Post-hoc comparisons were made by the use of Fisher's Least Significance Test. Results were considered significant, when p was lower than 0.05.

CC[C@H](C)[C@H](NC(=O)[C@H](CCC(=O)O)NC(=O)C(C)(C)NC(=O)[C@@H](NC(=O)C1(N)CCCC1)C(C)C)C(=O)N[C@@H](CCC(N)=O)C(=O)N[C@@H](CC(C)C)C(=O)N[C@@H](CCSC)C(=O)N[C@@H](Cc1c[nH]cn1)C(=O)N[C@@H](CCC(N)=O)C(=O)N[C@@H](CCCCNC(=N)N)C(=O)N[C@@H](C)C(=O)N[C@H]1CCCCNC(=O)C[C@@H](C(N)=O)NC(=O)[C@H](CC(C)C)NC(=O)[C@H](Cc2c[nH]c3ccccc23)NC(=O)[C@@H](NC(=O)[C@H](C)NC(=O)[C@H](CCCCNC(=N)N)NC(=O)[C@H](CCC(N)=O)NC(=O)[C@H](Cc2c[nH]cn2)NC(=O)[C@H](CCSC)NC(=O)[C@H](CC(C)C)NC(=O)[C@H](CCC(N)=O)NC(=O)[C@@H](NC(=O)[C@H](CCC(=O)O)NC(=O)C(C)(C)NC(=O)[C@@H](NC(=O)C2(N)CCCC2)C(C)C)[C@@H](C)CC)CCCCNC(=O)C[C@@H](C(N)=O)NC(=O)[C@H](CC(C)C)NC(=O)[C@H](Cc2c[nH]c3ccccc23)NC1=O [SEQ ID NO: 33, (H-Ac5c-Val-Aib-Glu-Ile-Gln-Leu-Met-His-Gln-Har-Ala-Lys( )-Trp-Leu-Asp( )-NH2)2] (I: H-[Ac5c]V[Aib]EIQLMHQ[hArg]AKWLD-NH2 / II: H-[Ac5c]V[Aib]EIQLMHQ[hArg]AKWLD-NH2; amide I:13-II:16, I:16-II:13 (inferred))
agonist strength relative to SEQ ID NO: 30 (cAMP): eight-fold stronger agonist | Emax ± SEM [pmol/well] (maximally inducible cAMP): 5.0 ± 0.3 pmol/well
